# Measurements published in patent US20080299123A1, “TREATMENT OF CHEMOTHERAPY- OR RADIOTHERAPY-RESISTANT TUMORS” (Deutsches Krebsforschungszentrum Stiftung des offentlichen …, priority 2006, published 2008).
# Tests used:
# [1] = tested on: cathepsin B and CRABPII transcription; experiment: L1-dependent gene regulation by qPCR in HEK293-hL1wt cells; assay type: cell-based, human; conditions: preincubation 96 h
# Method: (A) Analysis of L1-32 cleavage by γ-secretase. Cells were treated for 48 h at 37° C. with presenilin inhibitor IX (DAPT) or for control with DMSO. Isolated membranes were incubated for 2 h at 37° C. and then separated into pellet or supernatant (SN) fractions by ultracentrifugation. Lanes 1 to 2 show cells treated with DMSO (vehicle). Lanes 3 and 4 show cells preincubated with DAPT. (B) SKOV3ip cells were treated with DAPT either in the presence or absence of the metalloprotease inhibitor TAPI-0 for 24 hr. Cells were lysed in BOG lysis buffer and analyzed by Western blot analysis. The cell supernatant was analyzed for soluble L1 using mAb L1-11A and the cell lysate was examined for L1-32 using peytL1. (C) HEK293 or HEK293-hL1wt cells were treated with DMSO, DAPT, TAPI-0 or both inhibitors for 96 h. mRNA was transcribed to cDNA and analyzed by qPCR for the genes CRABPII and cathepsin B. (D) Analysis of ERK phosphorylation in SKOV3ip cells after treatment with the indicated compounds.
# We next investigated whether L1-mediated gene regulation was dependent on L1-processing, by carrying out inhibition experiments. […]
# mRNA was isolated using the Quiagen RNAeasy mini kit (Quiagen Hilden, Germany). […] After exposing of the hybridized membranes, the PhosphorImager screens were scanned (Fuji FLA-3000, 100 μm resolution, Fuji BAS-reader software). […]
# L1CAM = L1CAM cleavage by western blotting in L1CAM transfected PT45-P1 cells; assay type: cell-based, human; conditions: inhibitor 10 μmol/L, 24 hours
# Method: PT45-P1res cells (a,b) or PT45-P1 cells transfected with L1CAM or an empty control vector (mock) (c,d) were left untreated (w/o) or were either treated with Tapi-0, Tapi-1, GM6001 or L685,458 (each 10 μmol/L) for 24 hours. (a,c) Cellular lysates were subjected to western blotting using either the antibody clone UJ127 from Acris detecting only full-length L1CAM or the pcytL1 antibody detecting also the cytoplasmic part of L1CAM. HSP90 was detected as a control for equal protein load. (b,d) Thirty minutes after treatment with the respective inhibitor, cells were either left untreated or treated with 20 μg/mL etoposide for 24 hours. Then, cells were analysed for caspase-3/-7 activity expressed as n-fold induction of caspase-3/-7 activity of basal. Means±SD from three independent experiments are shown. * indicates p<0.05.
# Cells were seeded into 6 well and 12 well plates, respectively, and transfected or treated as indicated. Then, cells were washed once with PBS and lysed with 1 volume of 2×SDS sample buffer (128 mmol/L Tris-Base, 4.6% SDS, 10% glycerol). Samples were heated for 5 minutes at 95° C. and put on ice for 2 minutes. Protein concentrations were determined using the Dc Protein assay (BioRad). Ten μg of protein adjusted to an appropriate volume of SDS sample buffer containing 0.2 mg/mL bromphenolblue (Serva, Heidelberg, Germany) and 2.5% β-mercaptoethanol (Biomol, Hamburg, Germany) were submitted to electrophoresis on a 4-20% ProGel-Tris-glycin-gel (Anamed, Darmstadt, Germany) and immunoblotting was performed as described previously (Arlt et al, 2001). For detection of L1CAM, a monoclonal antibody (clone UJ127 from Acris Antibodies) was diluted at a concentration of 0.4 μg/mL in 5% nonfat milk powder and 0.05% Tween in TBS (blotto) and incubated overnight at 4° C. For detection of the cytoplasmic domain of L1CAM, the pcytL1 antibody (Mechtersheimer et al., 2001) was used at a concentration of 1 μg/mL in blotto and incubated overnight at 4° C. As control of equal protein load, a polyclonal rabbit antibody for HSP90 (Santa Cruz, Heidelberg, Germany) was diluted 1:2000 in blotto. The mouse anti CD51 antibody from Beckman Coulter GmbH (Krefeld, Germany) was used at a concentration of 1:500 in blotto for detection of human αv integrin. Incubation with the primary antibodies was performed overnight at 4° C. For detection of the primary antibodies, anti-mouse and anti-rabbit HRP-linked antibodies (Cell Signaling), respectively, were used at a dilution of 1:2000 in blotto-TBST at room temperature for 1 hour. After washing in TBST, blots were developed using the LumiGlo peroxidase detection kit (Cell Signaling).
smiles,measurement,setting,value
CC(C)C[C@H](CC(=O)NO)C(=O)N[C@@H](Cc1ccc2ccccc2c1)C(=O)N[C@@H](C)C(N)=O [TAPI-0],L1-dependent regulation of transcription for cathepsin B and CRABPII,[1],blocked
same,expression of full-length L1CAM and level of the 32 kD fragment,L1CAM,did neither influence the expression of full-length L1CAM nor increased the level of the 32 kD fragment
